Experimental data from ChEMBL document CHEMBL5356986, “Research status of indole-modified natural products” (RSC Med Chem, 2023).

Assays:
[1] = system: HT-29; assay: Antiproliferative activity against human HT-29 cells assessed as inhibition of cell proliferation by MTT assay; format: functional, cell-based
[2] = system: HeLa; assay: Antiproliferative activity against human HeLa cells assessed as inhibition of cell growth incubated for 72 hrs by MTT assay; format: functional, cell-based
[3] = system: MCF7; assay: Antiproliferative activity against human MCF7 cells assessed as inhibition of cell growth after overnight incubation by MTT assay; format: functional, cell-based
[4] = system: Bel-7402; assay: Cytotoxicity against human Bel-7402 cells assessed as reduction in cell viability measured after 72 hrs by MTT assay; format: functional, cell-based; conditions: Bel-7402, 72 h
[5] = Antioxidant activity assessed as DPPH radical scavenging activity; format: functional
[6] = system: Fusarium oxysporum; assay: Antifungal activity against Fusarium oxysporum assessed as inhibition of fungal growth; format: functional
[7] = system: Escherichia coli; assay: Antibacterial activity against Escherichia coli assessed as reduction in bacterial cell viability; format: functional
[8] = system: Aspergillus niger; assay: […] against Aspergillus niger assessed as […] incubated for 24 hrs by agar disc diffusion assay; format: functional
[9] = system: Klebsiella pneumoniae; assay: Antibacterial activity against Klebsiella pneumoniae assessed as reduction in bacterial growth by broth microdilution method; format: functional
[10] = system: Candida albicans; assay: Antibacterial activity against Candida albicans assessed as reduction in bacterial growth; format: functional
[11] = system: Staphylococcus aureus; assay: Antibacterial activity against Staphylococcus aureus assessed as reduction in microbial growth; format: functional
[12] = system: Bacillus subtilis; assay: Antibacterial activity against Bacillus subtilis assessed as reduction in microbial growth; format: functional
[13] = system: HeLa; assay: Cytotoxicity against human HeLa cells assessed as reduction in cell viability; format: functional, cell-based
[14] = system: CCRF-CEM; assay: Growth inhibition of human CCRF-CEM cells; format: functional
[15] = system: RPMI-8226; assay: Growth inhibition of human RPMI-8226 cells; format: functional
[16] = system: A549; assay: Antiproliferative activity against human A549 cells assessed as reduction in cell viability incubated for 48 hrs by MTT assay; format: functional, cell-based; conditions: A549, 48 h
[17] = Antioxidant activity assessed as DPPH radical scavenging activity measured after 30 mins; format: functional
[18] = molecular target: Alpha glucosidase (Homo sapiens, UniProt O43451+P10253+P14410+Q2M2H8); assay: Inhibition of alpha glucosidase (unknown origin) measured after 60 mins; format: protein assay
[19] = system: HL-60; assay: Cytotoxicity against human HL-60 cells assessed as reduction in cell viability incubated for 48 hrs by MTT assay; format: functional, cell-based; conditions: HL-60, 48 h
[20] = Cytotoxicity against human A549 cells assessed as cell growth inhibition measured after 24 hrs by MTT assay; format: functional, cell-based
[21] = system: MCF7; assay: Cytotoxicity against human MCF7 cells assessed as reduction in cell growth; format: functional, cell-based
[22] = system: SW480; assay: Cytotoxicity against human SW480 cells assessed as cell growth inhibition; format: functional, cell-based
[23] = system: SMMC-7721; assay: Cytotoxicity against human SMMC-7721 cells assessed as reduction in cell viability incubated for 48 hrs by MTT assay; format: functional, cell-based; conditions: SMMC-7721, 48 h
[24] = system: HeLa; assay: Antiproliferative activity against human HeLa cells assessed as reduction in cell growth; format: functional, cell-based
[25] = system: K562; assay: Antiproliferative activity against human K562 cells assessed as cell growth inhibition by MTT assay; format: functional, cell-based
[26] = system: A549; assay: Antiproliferative activity against human A549 cells assessed as reduction in cell viability by MTT assay; format: functional, cell-based
[27] = system: MCF7; assay: Cytotoxicity against human MCF7 cells assessed as reduction in cell viability after 48 hrs by SRB assay; format: functional, cell-based; conditions: MCF7, 48 h
[28] = system: Human immunodeficiency virus 1; assay: Antiviral activity against HIV-1 harboring integrase L74M mutant; format: functional, organism-based
[29] = system: HepG2; assay: Cytotoxicity against human HepG2 cells assessed as reduction in cell viability measured after 48 hrs by MTT colorimetric based assay; format: functional; conditions: HepG2, 48 h
[30] = system: SGC-7901; assay: Cytotoxicity against human SGC-7901 cells assessed as reduction in cell viability measured after 48 hrs by MTT colorimetric assay; format: functional, cell-based; conditions: SGC-7901, 48 h
[31] = system: MCF7; assay: Antiproliferative activity against human MCF7 cells assessed as reduction in cell viability incubated for 120 hrs by MTT assay; format: functional, cell-based; conditions: MCF7, 120 h
[32] = system: H4; assay: Antiproliferative activity against human H4 cells assessed as cell growth inhibition; format: functional, cell-based
[33] = system: CAMA-1; assay: Antiproliferative activity against human CAMA-1 cells assessed as cell growth inhibition; format: functional, cell-based
[34] = system: MDA-MB-453; assay: Antiproliferative activity against human MDA-MB-453 cells assessed as reduction in cell growth after 72 hrs by MTT assay; format: functional, cell-based; conditions: MDA-MB-453, 72 h

## CCOC(=O)c1[nH]c2cc(OC)ccc2c1/C=C/C(=O)c1cc(OC)c(OC)c(OC)c1
[1]
  IC50: 130 nM
[2]
  IC50: 840 nM
[3]
  IC50: 240 nM

## COC(=O)[C@]1(C)CC[C@]2(C)CC[C@]3(C)C4=CC(c5c[nH]c6cc(C)ccc56)=C5C(=CC(OC)C(OC)=C5C)[C@]4(C)CC[C@@]3(C)[C@@H]2C1 (some centres undefined)
[4]
  IC50: 20 nM

## O=C1O[C@H]([C@@H](O)CO)C([O-])=C1O.[Na+] [SODIUM ASCORBATE]
[5]
  IC50: 12.8 µM

## CCOC(=O)c1[nH]c2ccccc2c1/C=C/C(=O)c1cc(OC)c(OC)c(OC)c1
[1]
  IC50: 440 nM
[2]
  IC50: 2100 nM
[3]
  IC50: 1800 nM

## GENTAMICIN
[6]
  MIC: 27 µg/mL
[7]
  MIC: 26 µg/mL
[8]
  MIC: 27 µg/mL
[9]
  MIC: 26 µg/mL
[10]
  MIC: 28 µg/mL
[11]
  MIC: 26 µg/mL
[12]
  MIC: 28 µg/mL

## COc1ccc(/C=C\c2cc(OC)c(OC)c(OC)c2)cc1O [COMBRETASTATIN A4]
[13]
  IC50: 210 nM

## C=C1C(=O)O[C@H]2[C@H]1CC1C(COC(=O)/C=C/c3c[nH]c4ccccc34)=CCC[C@@]3(C)O[C@@]123 (some centres undefined)
[14]
  GI50: 70 nM
[15]
  GI50: 30 nM

## COc1ccc(OC)c(-c2nc(C(=O)N[C@H]3c4cc5c(cc4[C@@H](c4cc(OC)c(OC)c(OC)c4)[C@H]4C(=O)OC[C@@H]43)OCO5)cc3c2[nH]c2ccccc23)c1
[16]
  IC50: 1870 nM

## O=C(/C=C/c1ccc(O)c(O)c1)Nc1ccc2[nH]ccc2c1
[17]
  EC50: 51 µM

## C=C(C)[C@@H]1CC[C@]2(C(=O)O)CC[C@]3(C)[C@H](CC[C@@H]4[C@@]5(C)Cc6c([nH]c7ccccc67)C(C)(C)[C@@H]5CC[C@]43C)[C@@H]12
[18]
  IC50: 0.04 µM

## O=C(/C=C/c1ccc(O)c(O)c1)NCCc1c[nH]c2ccc(O)cc12 [N-CAFFEOYLSEROTONIN]
[17]
  EC50: 8.1 µM

## C=C1C(=O)O[C@@H]2C3O[C@]3(C)CC/C=C(\C)CC[C@@H]12 (some centres undefined)
[14]
  GI50: 9160 nM
[15]
  GI50: 8200 nM

## COC(=O)C1=CO[C@@H](OC)[C@@H]2C(C(NCCc3c[nH]c4ccc(OC)cc34)NCCc3c[nH]c4ccc(OC)cc34)=CC[C@H]12
[19]
  IC50: 430 nM
[20]
  IC50: 1180 nM
[21]
  IC50: 580 nM
[22]
  IC50: 890 nM
[23]
  IC50: 690 nM

## COc1cc([C@@H]2c3cc4c(cc3[C@H](NC(=O)C(=O)c3cn(Cc5ccccc5Cl)c5ccc(F)cc35)[C@H]3COC(=O)[C@H]23)OCO4)cc(OC)c1OC
[24]
  IC50: 150 nM
[25]
  IC50: 400 nM

## C=C(C)[C@@H]1CC[C@]2(C(=O)NCC(=O)O)CC[C@]3(C)[C@H](CC[C@@H]4[C@@]5(C)Cc6c([nH]c7ccccc67)C(C)(C)[C@@H]5CC[C@]43C)[C@@H]12
[18]
  IC50: 1.8 µM

## COc1cc([C@@H]2c3cc4c(cc3[C@H](NC(=O)C(=O)c3c[nH]c5ccc(C(=O)NC(C)C)cc35)[C@H]3COC(=O)[C@H]23)OCO4)cc(OC)c1OC
[24]
  IC50: 3920 nM

## COc1ccc2c(/C=N/[C@H]3c4cc5c(cc4[C@@H](c4cc(OC)c(OC)c(OC)c4)[C@H]4C(=O)OC[C@@H]43)OCO5)cn(Cc3ccccc3F)c2c1
[24]
  IC50: 790 nM

## COc1ccc2[nH]c(C(=O)OC3O[C@@H]4O[C@@]5(C)CC[C@H]6[C@H](C)CC[C@@H]([C@H]3C)[C@@]46OO5)cc2c1 (some centres undefined)
[26]
  IC50: 13.4 µM
[27]
  IC50: 14.5 µM

## COc1cc([C@@H]2c3cc4c(cc3[C@H](OC(=O)c3c[nH]c5ccccc35)[C@H]3COC(=O)[C@H]23)OCO4)cc(OC)c1OC
[24]
  IC50: 2200 nM

## O=C1O[C@H]([C@@H](O)CO)C(O)=C1O [ASCORBIC ACID]
[17]
  EC50: 23 µM

## COc1cc([C@@H]2c3cc4c(cc3[C@H](NC(=O)c3cc5c([nH]c6ccccc65)c(-c5ccc(F)c(F)c5)n3)[C@H]3COC(=O)[C@H]23)OCO4)cc(OC)c1OC
[16]
  IC50: 2240 nM

## C=C(C)[C@@H]1CC[C@]2(C(=O)O)CC[C@]3(C)[C@H](CC[C@@H]4[C@@]5(C)CC[C@H](OC(=O)CC(C)(C)C(=O)O)C(C)(C)[C@@H]5CC[C@]43C)[C@@H]12 [BEVIRIMAT]
[28]
  IC50: 65 nM

## C[C@@H]1CC[C@H]2[C@@H](C)C(OC(=O)c3cc4ccccc4[nH]3)O[C@@H]3O[C@@]4(C)CC[C@@H]1[C@]32OO4 (some centres undefined)
[26]
  IC50: 12.9 µM
[27]
  IC50: 6.78 µM

## COC(=O)C1=CO[C@@H](OC)[C@@H]2C(C(NCCc3c[nH]c4ccccc34)NCCc3c[nH]c4ccccc34)=CC[C@H]12
[19]
  IC50: 900 nM
[20]
  IC50: 3640 nM
[21]
  IC50: 3100 nM
[22]
  IC50: 2530 nM
[23]
  IC50: 3520 nM

## C[C@H]1[C@H](C)CC[C@]2(C(=O)O)CC[C@]3(C)C(=CC[C@@H]4[C@@]5(C)CC[C@H](O)C(C)(C)[C@@H]5CC[C@]43C)[C@H]12 [URSOLIC ACID]
[29]
  IC50: > 20 µM
[30]
  IC50: > 20 µM

## COC(=O)c1[nH]c2ccc(OC)cc2c1/C=C/C(=O)c1cc(OC)c(OC)c(OC)c1
[1]
  IC50: 1000 nM
[2]
  IC50: 2400 nM
[3]
  IC50: 590 nM

## C=C1C(=O)O[C@H]2[C@H]1CC1C(COC(=O)c3cc4ccccc4[nH]3)=CCC[C@@]3(C)O[C@@]123 (some centres undefined)
[14]
  GI50: 280 nM
[15]
  GI50: 260 nM

## COc1cc([C@@H]2c3cc4c(cc3[C@H](NCc3c[nH]c5ccccc35)[C@H]3COC(=O)[C@H]23)OCO4)cc(OC)c1OC
[24]
  IC50: 100 nM

## C=C1C(=O)O[C@H]2[C@H]1CC1C(COC(=O)c3c[nH]c4ccccc34)=CCC[C@@]3(C)O[C@@]123 (some centres undefined)
[14]
  GI50: 50 nM
[15]
  GI50: 40 nM

## COc1ccc2[nH]cc(C(=O)C(=O)N[C@H]3c4cc5c(cc4[C@@H](c4cc(OC)c(OC)c(OC)c4)[C@H]4C(=O)OC[C@@H]43)OCO5)c2c1
[24]
  IC50: 1960 nM
[31]
  IC50: 1960 nM

## COc1ccc(/C=C\c2cc(OC)c(OC)c(OC)c2)cc1OC(=O)c1cccc(-n2cc(CCOC(=O)[C@H](N)Cc3cn(C)c4ccccc34)nn2)c1
[13]
  IC50: 70 nM

## COC(=O)c1[nH]c2ccccc2c1/C=C/C(=O)c1cc(OC)c(OC)c(OC)c1
[1]
  IC50: 7300 nM
[2]
  IC50: 2000 nM
[3]
  IC50: 1100 nM

## CCOC(=O)c1[nH]c2ccc(OC)cc2c1/C=C/C(=O)c1cc(OC)c(OC)c(OC)c1
[1]
  IC50: 390 nM
[2]
  IC50: 330 nM
[3]
  IC50: 460 nM

## C=C(C)[C@@H]1CC[C@]2(C(=O)N3CCN(C(=O)/C=C/c4ccc5[nH]ccc5c4)CC3)CC[C@]3(C)[C@H](CC[C@@H]4[C@@]5(C)CC[C@H](OC(=O)CC(C)(C)C(=O)O)C(C)(C)[C@@H]5CC[C@]43C)[C@@H]12
[28]
  IC50: 50 nM

## CC1=C(O)C(=O)C=C2C1=CC=C1[C@@]2(C)CC[C@@]2(C)[C@@H]3C[C@](C)(C(=O)O)CC[C@]3(C)CC[C@]12C [CELASTROL]
[32]
  IC50: 2090 nM
[4]
  IC50: 1550 nM

## COc1cc([C@@H]2c3cc4c(cc3[C@H](OC(=O)c3ccc5cc[nH]c5c3)[C@H]3COC(=O)[C@H]23)OCO4)cc(OC)c1OC
[25]
  IC50: 100 nM

## CC1(C)CCC(C)(C)c2cc(C(=O)/C=C/c3c[nH]c4ccccc34)ccc21
[33]
  IC50: < 10 nM
[34]
  IC50: < 10 nM

## COC(=O)[C@]1(C)CC[C@]2(C)CC[C@]3(C)C4=CC(c5cn(C)c6cc(Cl)ccc56)=C5C(=CC(OC)C(OC)=C5C)[C@]4(C)CC[C@@]3(C)[C@@H]2C1 (some centres undefined)
[32]
  IC50: 2030 nM
[4]
  IC50: 10 nM
